Activity calls are given as the source filed them.
Assays:
[1] = M. tuberculosis growth inhibition, HTS (AID 449762); format: functional
[2] = target: Sphingosine 1-phosphate receptor 2 (Homo sapiens, UniProt O95136); assay: Dose Response Cell Based Assay for Agonists of the S1P2 Receptor. [Related pubchem assays: 729, 736, 843 ]; format: functional
[3] = target: Lysine-specific demethylase 4C (Homo sapiens, UniProt Q9H3R0); assay: GASC-1 (JMJD2C) histone demethylase inhibitors, dose response, biochemical, DELFIA europium, cherry-picked samples (AID 488835); format: functional
Chain of Lysine-specific demethylase 4C (Q9H3R0 whole entry): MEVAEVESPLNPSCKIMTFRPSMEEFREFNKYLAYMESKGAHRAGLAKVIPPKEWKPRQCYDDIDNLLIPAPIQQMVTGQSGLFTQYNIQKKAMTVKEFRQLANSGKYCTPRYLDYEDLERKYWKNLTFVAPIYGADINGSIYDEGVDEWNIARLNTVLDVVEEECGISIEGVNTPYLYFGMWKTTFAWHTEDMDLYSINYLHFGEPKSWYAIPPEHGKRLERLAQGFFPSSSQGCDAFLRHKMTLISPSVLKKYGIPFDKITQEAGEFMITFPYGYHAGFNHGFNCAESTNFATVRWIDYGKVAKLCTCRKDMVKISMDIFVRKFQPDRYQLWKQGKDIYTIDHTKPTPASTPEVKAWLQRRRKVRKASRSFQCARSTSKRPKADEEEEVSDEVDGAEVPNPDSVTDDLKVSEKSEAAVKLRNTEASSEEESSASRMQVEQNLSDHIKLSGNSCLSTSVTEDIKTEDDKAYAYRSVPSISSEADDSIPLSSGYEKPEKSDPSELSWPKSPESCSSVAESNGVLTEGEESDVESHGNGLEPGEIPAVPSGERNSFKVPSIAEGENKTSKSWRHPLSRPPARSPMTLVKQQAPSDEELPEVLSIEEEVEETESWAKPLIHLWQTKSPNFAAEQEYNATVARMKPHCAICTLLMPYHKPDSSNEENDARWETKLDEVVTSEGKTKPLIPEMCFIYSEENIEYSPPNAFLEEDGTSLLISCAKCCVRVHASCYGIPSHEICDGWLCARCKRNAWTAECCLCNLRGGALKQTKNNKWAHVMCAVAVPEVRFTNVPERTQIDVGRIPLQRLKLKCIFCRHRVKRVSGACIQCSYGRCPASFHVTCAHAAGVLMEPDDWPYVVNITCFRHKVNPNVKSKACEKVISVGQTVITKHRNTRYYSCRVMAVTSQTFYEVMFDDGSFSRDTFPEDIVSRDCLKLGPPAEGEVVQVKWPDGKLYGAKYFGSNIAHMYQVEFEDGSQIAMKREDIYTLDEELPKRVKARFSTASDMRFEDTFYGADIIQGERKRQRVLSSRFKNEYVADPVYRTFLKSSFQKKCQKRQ

Transthyretin = Transthyretin (Homo sapiens, UniProt P02766); assay: Luminescence-based cell-based high throughput dose response assay to identify activators of Transthyretin (TTR) transcription.; format: functional
Aspartyl aminopeptidase = Aspartyl aminopeptidase (Plasmodium falciparum 3D7, UniProt Q8I2J3); assay: Counterscreen for inhibitors of M1 and M17 aminopeptidases: QFRET-based biochemical high throughput dose response assay for inhibitors of the Plasmodium falciparum M18 Aspartyl Aminopeptidase (PFM18AAP). [Related PubChem assays: 1619 (Screening assay (M17LAP inhibitors).), 1445 (Screening assay (M1AAP inhibitors).)]
Chain of Aspartyl aminopeptidase (Q8I2J3 whole entry): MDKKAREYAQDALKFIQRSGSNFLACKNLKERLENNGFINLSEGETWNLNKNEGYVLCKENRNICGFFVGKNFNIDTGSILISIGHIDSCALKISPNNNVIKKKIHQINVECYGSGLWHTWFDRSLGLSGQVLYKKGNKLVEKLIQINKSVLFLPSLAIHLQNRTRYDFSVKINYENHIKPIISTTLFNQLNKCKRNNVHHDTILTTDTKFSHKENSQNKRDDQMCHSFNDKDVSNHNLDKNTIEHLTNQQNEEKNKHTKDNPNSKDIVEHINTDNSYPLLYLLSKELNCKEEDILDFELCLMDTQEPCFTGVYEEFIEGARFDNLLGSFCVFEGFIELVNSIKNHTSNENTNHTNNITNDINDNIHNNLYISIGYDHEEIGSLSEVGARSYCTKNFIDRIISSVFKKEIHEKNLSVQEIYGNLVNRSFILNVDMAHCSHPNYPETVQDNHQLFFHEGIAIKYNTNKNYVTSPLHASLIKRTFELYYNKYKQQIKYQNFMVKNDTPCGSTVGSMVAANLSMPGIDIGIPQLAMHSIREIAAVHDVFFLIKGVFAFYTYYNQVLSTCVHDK

Aminopeptidase N = target: T1, Aminopeptidase N (Plasmodium falciparum FcB1/Columbia, UniProt O96935); assay: P. falciparum M1AAP inhibitors, biochemical, fluorogenic H-Leu-NHMec substrate, 1536-well (AID 1445); parameters: species or system Plasmodium falciparum 3D7, 3D7
T1 sequence (O96935 whole entry): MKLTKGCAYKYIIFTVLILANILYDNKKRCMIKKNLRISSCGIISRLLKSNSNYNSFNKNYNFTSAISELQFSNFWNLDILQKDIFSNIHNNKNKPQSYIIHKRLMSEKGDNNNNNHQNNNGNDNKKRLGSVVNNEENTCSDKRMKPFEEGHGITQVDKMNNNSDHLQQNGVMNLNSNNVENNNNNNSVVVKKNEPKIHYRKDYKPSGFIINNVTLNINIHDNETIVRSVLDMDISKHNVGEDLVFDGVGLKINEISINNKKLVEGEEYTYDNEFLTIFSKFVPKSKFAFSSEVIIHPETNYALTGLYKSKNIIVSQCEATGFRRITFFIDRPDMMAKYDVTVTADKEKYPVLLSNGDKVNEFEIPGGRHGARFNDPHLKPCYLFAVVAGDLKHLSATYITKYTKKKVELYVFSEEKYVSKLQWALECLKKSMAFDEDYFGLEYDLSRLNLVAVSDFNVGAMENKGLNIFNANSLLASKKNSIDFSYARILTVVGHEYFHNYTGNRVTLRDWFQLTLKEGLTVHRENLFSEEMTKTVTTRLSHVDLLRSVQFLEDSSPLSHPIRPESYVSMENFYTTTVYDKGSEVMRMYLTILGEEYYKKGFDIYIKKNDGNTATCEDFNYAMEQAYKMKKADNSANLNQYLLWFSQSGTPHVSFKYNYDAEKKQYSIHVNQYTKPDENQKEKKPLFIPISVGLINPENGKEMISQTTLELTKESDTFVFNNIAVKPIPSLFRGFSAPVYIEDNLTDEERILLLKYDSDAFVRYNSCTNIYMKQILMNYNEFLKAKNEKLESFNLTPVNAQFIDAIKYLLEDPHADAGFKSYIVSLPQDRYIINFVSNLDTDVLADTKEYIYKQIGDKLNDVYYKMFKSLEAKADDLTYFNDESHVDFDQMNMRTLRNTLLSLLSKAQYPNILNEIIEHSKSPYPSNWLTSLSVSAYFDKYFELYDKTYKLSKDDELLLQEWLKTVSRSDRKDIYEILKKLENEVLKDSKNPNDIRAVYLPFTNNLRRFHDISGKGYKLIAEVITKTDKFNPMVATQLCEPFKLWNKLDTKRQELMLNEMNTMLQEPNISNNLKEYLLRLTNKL

Procathepsin L = Procathepsin L (Homo sapiens, UniProt P07711); assay: cathepsin L inhibitors, dose response, counter-screen for M1/M17 aminopeptidase inhibitor project, biochemical, QFRET, 1536-well (AID 2214)
[4] = P. falciparum late gametocyte killing, dose response, luminescence (AID 1117278); format: functional, cell-based;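 also: gametocytes exposed to compound for 24 hours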
[5] = Jurkat T cell cytotoxicity, dose response, cytotoxicity control for P. falciparum gametocyte viability project, luminescence (AID 1117277); format: functional, cell-based;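 also: potency reflects loss of cellular ATP meaning fewer viable cells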
[6] = Vero cell cytotoxicity, dose response, cytotoxicity control for Vif-APOBEC3G degradation inhibitor project, Vero cells (AID 1117358); format: functional; settings: Human immunodeficiency virus 1, Vero
[7] = Concentration-dependent survival of SW480 colon cancer line, luminescence detection with CellTiter-Glo, half-maximal inhibitory concentration (AID 1117338); format: functional
[8] = RKO cell viability reduction, dose response, CellTiter-Glo luminescence (AID 1117322); format: functional
[9] = cytotoxicity toward HCT116 cells – cell-based, CellTiter-Glo luminescence, IC50, dose response (AID 1117332); format: functional; settings: HCT-116
[10] = SNU-C1 cell viability reduction, dose response, CellTiter-Glo luminescence (AID 1117323); format: functional, cell-based
[11] = cytotoxicity toward Colo320 cells – cell-based, CellTiter-Glo luminescence, IC50, dose response (AID 1117334); format: functional; settings: COLO 320
[12] = cytotoxicity toward HT-29 cells – cell-based, CellTiter-Glo luminescence, IC50, dose response (AID 1117330); format: functional
[13] = CellTiter-Glo luminescent dose response of DLD-1 viability loss (AID 1117352); format: functional
[14] = HCT116 cell viability decrease, GSK3B pretreatment – CellTiter-Glo, IC50, dose response (AID 1117339); format: functional; settings: HCT-116
Keap1/Nrf2 = Keap1/Nrf2 (Homo sapiens, UniProt Q14145); assay: Keap1-Nrf2 protein-protein interaction inhibitors, dose response, biochemical, fluorescence polarization, cherry-picked samples (AID 588683)
Chain of Keap1/Nrf2 (Q16236 whole entry): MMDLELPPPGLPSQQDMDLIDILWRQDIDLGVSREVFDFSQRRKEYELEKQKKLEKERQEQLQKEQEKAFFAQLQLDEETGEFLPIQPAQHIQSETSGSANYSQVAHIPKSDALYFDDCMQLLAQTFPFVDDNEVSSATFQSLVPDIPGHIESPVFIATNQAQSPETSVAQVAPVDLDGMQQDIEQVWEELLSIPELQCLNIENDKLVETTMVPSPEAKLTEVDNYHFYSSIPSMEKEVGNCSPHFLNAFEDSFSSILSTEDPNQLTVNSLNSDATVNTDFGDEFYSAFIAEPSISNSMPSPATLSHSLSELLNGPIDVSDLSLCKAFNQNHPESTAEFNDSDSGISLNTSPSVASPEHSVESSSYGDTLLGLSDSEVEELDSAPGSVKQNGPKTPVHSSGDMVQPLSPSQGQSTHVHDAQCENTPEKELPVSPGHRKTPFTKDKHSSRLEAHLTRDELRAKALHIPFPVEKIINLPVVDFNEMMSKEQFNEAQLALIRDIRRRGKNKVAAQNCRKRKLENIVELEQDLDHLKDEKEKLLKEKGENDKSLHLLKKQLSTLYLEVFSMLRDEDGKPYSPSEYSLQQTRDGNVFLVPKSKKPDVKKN
Chain of Keap1/Nrf2 (Q14145 whole entry): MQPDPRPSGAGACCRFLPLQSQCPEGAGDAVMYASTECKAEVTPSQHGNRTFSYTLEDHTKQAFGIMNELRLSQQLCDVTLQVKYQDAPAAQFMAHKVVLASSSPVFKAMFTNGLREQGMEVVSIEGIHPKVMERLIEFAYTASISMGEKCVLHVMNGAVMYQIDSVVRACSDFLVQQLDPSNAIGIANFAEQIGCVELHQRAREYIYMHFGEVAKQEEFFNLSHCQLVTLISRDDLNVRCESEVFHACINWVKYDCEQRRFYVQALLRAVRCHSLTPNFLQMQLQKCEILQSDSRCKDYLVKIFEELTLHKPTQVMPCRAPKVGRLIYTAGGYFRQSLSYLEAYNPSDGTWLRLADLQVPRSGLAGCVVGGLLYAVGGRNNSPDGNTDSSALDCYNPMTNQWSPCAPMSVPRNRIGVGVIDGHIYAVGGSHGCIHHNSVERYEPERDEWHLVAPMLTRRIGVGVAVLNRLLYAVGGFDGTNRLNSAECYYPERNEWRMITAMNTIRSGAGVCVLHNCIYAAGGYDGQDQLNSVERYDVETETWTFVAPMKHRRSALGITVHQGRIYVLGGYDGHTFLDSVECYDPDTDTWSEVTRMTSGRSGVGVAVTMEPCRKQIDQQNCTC

[15] = target: Glutathione-S-transferase (Schistosoma japonicum, UniProt Q26513); assay: biotin-GST/anti-GST TR-FRET signal inhibitors, dose response, artefact control for Vif-APOBEC3G degradation inhibitor project, biochemical (AID 1117362); format: functional
Danio rerio = assay: In Vivo Angiogenesis Dose-Response Confirmation. [Related pubchem assays: 732 (Assay preceding this confirmatory assay.)]; format: functional, organism-based
Leucine aminopeptidase = target: T2, Leucine aminopeptidase (Plasmodium falciparum 3D7, UniProt Q8IL11); assay: P. falciparum M17LAP inhibitors, primary screen, biochemical, fluorogenic H-Leu-NHMec substrate, 1536-well (AID 1619); format: functional
T2 sequence (Q8IL11 whole entry): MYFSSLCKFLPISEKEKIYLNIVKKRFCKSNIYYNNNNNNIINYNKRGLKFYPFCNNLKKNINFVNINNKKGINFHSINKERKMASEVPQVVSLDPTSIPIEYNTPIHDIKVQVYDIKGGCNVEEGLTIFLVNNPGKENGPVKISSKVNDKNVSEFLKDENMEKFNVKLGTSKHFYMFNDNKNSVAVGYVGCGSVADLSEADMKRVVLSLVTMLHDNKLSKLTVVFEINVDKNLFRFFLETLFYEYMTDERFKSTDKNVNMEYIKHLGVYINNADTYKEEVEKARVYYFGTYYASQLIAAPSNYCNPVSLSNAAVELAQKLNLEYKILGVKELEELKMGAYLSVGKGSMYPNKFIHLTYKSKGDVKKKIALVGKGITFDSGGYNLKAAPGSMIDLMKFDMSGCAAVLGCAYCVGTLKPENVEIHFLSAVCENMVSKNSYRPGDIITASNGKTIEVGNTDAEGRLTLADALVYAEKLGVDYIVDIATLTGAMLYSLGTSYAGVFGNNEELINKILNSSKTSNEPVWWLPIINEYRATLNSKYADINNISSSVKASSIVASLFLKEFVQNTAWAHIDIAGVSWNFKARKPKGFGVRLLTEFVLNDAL

[16] = target: Heat shock protein HSP 90-alpha (Homo sapiens, UniProt P07900); assay: Luminescence-based dose response biochemical high throughput screening assay for inhibitors of the Heat Shock Protein 90 (HSP90). [Related pubchem assays: 1831 (Summary AID.), 1846 (Confirmation screen.), 1789 (Primary screen.)]
[17] = target: Bifunctional protein GlmU (Mycobacterium tuberculosis, UniProt P9WMN3); assay: Inhibitors of Mycobacterial Glucosamine-1-phosphate acetyl transferase (GlmU). Secondary screen.; parameters: species or system Mycobacterium tuberculosis H37Rv
Chain of Bifunctional protein GlmU (P9WMN3 whole entry): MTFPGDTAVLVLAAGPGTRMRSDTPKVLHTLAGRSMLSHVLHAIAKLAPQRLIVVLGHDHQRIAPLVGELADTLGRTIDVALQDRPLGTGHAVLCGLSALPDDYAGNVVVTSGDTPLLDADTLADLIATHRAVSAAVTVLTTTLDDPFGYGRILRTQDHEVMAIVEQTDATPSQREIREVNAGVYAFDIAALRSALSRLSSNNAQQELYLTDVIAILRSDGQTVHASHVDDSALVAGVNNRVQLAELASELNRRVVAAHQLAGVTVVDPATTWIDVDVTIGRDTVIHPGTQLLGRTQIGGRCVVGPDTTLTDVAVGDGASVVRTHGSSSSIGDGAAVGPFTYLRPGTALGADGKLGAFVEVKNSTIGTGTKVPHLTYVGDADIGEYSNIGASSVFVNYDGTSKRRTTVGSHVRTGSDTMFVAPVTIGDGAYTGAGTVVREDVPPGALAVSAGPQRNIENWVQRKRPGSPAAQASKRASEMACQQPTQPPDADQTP

Genome polyprotein = Genome polyprotein (dengue virus type 2, UniProt P29990); assay: Dengue-2 NS5 methyltransferase inhibitors, primary screen, biochemical, confirmation dose response (AID 588689); format: functional
Chain of Genome polyprotein (P29990 2492-3391 limits assumed): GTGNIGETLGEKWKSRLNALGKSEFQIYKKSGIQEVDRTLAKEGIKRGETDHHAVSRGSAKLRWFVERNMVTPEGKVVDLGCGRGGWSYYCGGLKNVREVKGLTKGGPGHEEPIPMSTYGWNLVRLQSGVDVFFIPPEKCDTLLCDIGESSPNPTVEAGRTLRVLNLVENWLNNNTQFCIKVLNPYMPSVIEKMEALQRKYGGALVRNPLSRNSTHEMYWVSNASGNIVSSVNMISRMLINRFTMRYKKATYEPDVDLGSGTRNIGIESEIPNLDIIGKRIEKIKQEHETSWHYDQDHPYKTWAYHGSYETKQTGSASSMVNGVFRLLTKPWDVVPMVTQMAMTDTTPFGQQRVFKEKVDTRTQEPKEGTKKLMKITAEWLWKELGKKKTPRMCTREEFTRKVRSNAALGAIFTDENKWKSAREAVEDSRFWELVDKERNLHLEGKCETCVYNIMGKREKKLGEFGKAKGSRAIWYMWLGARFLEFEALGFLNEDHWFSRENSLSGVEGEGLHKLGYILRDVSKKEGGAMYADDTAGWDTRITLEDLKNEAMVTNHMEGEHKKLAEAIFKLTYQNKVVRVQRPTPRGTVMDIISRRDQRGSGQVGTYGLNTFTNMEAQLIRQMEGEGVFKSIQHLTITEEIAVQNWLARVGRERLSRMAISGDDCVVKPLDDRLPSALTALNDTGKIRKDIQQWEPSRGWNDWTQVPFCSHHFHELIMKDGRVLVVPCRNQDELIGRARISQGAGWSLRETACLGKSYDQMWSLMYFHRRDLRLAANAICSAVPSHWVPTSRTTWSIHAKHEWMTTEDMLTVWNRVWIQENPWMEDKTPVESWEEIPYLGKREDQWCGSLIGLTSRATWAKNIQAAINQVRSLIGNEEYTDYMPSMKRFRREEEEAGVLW

[18] = target: T3, Carboxy-terminal domain RNA polymerase II polypeptide A small phosphatase 1 (Homo sapiens, UniProt Q9GZU7); assay: inhibitors of CTDSP1, concentration-response testing, biochemical assay, absorbance-based, actives from ultra-high-throughput screening (AID 540297); format: functional
T3 sequence (Q9GZU7 whole entry): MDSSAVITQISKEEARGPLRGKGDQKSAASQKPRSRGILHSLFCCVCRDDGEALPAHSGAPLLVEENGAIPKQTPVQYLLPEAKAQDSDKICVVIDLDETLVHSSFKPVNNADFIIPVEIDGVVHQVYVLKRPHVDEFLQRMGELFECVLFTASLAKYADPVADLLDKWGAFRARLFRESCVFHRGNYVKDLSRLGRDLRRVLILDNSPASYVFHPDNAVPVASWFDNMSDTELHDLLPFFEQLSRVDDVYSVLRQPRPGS

[19] = target: Tyrosine-protein phosphatase non-receptor type 11 (Homo sapiens, UniProt Q06124); assay: SHP2 phosphatase inhibition, dose response, selectivity assay for STEP inhibitor project, biochemical (AID 602367); format: functional; settings: read-out: IC50_Mean
[20] = target: Tyrosine-protein phosphatase non-receptor type 5 (Homo sapiens, UniProt P54829); assay: STEP phosphatase inhibitors, confirmation, biochemical, fluorescence intensity, uHTS hits (AID 602372); format: functional; settings: read-out: IC50_Mean
[21] = target: Dual specificity protein phosphatase 3 (Homo sapiens, UniProt P51452); assay: VHR phosphatase inhibition, dose response, selectivity assay for STEP inhibitor project, biochemical (AID 602374); format: functional; settings: read-out: IC50_Mean
[22] = target: G-protein coupled receptor 183 (Homo sapiens, UniProt P32249); assay: SAR confirmation of small molecule antagonists of the EBI2 receptor via a luminescent beta-arrestin assa.; format: functional
Chain of G-protein coupled receptor 183 (P32249 whole entry): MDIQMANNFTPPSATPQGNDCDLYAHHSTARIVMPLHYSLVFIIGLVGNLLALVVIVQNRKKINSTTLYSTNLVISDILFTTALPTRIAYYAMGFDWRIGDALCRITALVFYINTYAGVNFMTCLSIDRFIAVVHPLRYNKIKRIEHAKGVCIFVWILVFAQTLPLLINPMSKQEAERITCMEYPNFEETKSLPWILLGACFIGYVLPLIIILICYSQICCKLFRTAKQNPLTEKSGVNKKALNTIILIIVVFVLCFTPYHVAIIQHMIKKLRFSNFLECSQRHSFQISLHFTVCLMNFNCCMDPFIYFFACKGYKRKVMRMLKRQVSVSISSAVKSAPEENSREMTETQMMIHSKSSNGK

[23] = P. falciparum 3D7-ScDHODH growth inhibitors, dose response, SYBR Green, dry powder samples (AID 1159570); format: functional, cell-based;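 also: parasite growth measured after 72 hours of compound exposure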
[24] = P. falciparum Dd2 growth inhibitors, dose response, SYBR Green, cherry-picked samples (AID 1159567); format: functional, cell-based
[25] = P. falciparum Dd2 growth inhibitors, dose response, SYBR Green, dry powder samples (AID 1159566); format: functional, cell-based;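 also: potency for growth inhibition with lower SYBR green DNA signal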
[26] = HepG2 cell cytotoxicity, dose response, cytotoxicity control, cherry-picked samples (AID 1159577); format: functional, cell-based
[27] = P. falciparum ATP4 D1247Y mutant growth inhibitors, dose response, NITD609-resistant line, SYBR Green, dry powder (AID 1159571); format: functional, cell-based;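 also: parasites synchronized at ring stage by sorbitol before testing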

Chain of Sphingosine 1-phosphate receptor 2 (O95136 whole entry): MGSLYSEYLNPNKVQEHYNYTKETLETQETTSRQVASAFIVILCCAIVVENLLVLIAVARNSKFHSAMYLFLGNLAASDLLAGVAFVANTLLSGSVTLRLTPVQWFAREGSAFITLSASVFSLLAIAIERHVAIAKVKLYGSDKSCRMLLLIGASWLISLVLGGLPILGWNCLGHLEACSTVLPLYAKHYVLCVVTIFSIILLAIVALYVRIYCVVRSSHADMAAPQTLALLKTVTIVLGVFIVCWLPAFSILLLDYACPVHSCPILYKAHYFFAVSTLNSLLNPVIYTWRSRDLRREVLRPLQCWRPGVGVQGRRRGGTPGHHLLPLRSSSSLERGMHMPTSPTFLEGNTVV

In the case of `CC(=O)N1C(Nc2ccc(Cl)cc2)CCN1c1ccccc1` (stereo not given), the IC50 [1] is reported as > 100 µM (active).

In the case of `NC(=O)c1ccc(NC(=O)C2CCCO2)cc1` (stereo not given), the EC50 [2] is reported as > 50 µM (not active).

For `Cc1ccc(C2CC(c3ccccc3)=NN2C(S)=Nc2ccccc2)o1` (stereo not given), the AC50 [3] was 20.5 µM (active) and the EC50 (Transthyretin) was > 167 µM (inactive).

With `O=C(NCCC1=CCCCC1)C1CCN(S(=O)(=O)c2ccc(Br)s2)CC1` the IC50 (Aspartyl aminopeptidase) was > 73.5 µM (not active), the IC50 (Aminopeptidase N) was 13.2 µM (active) and the IC50 (Procathepsin L) was > 59.6 µM (not active).

In the case of `CC(C)OC(=O)c1c(NC(=O)c2ccco2)sc2c1CCCC2`, the IC50 [4] is reported as > 109 µM (inactive) and the IC50 [5] is reported as > 83.2 µM (inactive).

With `O=C(Nc1cccc(Cl)c1)C1=Cc2cc(Cl)ccc2OC1` the CC50 [6] was > 40 µM (active).

For `C=CCCCCCCCCC(=O)OC`, the IC50 [7] was > 20 µM (inactive), the IC50 [8] was > 20 µM (inactive) and the IC50 [9] was > 20 µM (inactive). The IC50 [10] was > 20 µM (inactive), the IC50 [11] was > 20 µM (inactive) and the IC50 [12] was > 20 µM (inactive). For the same compound, the IC50 [13] was > 20 µM (inactive) and the IC50 [14] was > 20 µM (inactive).

In the case of `COC(=O)C1=COC(C)C2CN3CCc4c([nH]c5ccccc45)C3CC12` (stereo not given), the AC50 (Keap1/Nrf2) is reported as > 52 µM (inactive) and the IC50 [15] is reported as > 100 µM (active).

For `Cc1cccc2c1NC(=O)/C2=C1\Nc2ccc(Br)cc2\C1=N/O`, the IC50 (Danio rerio) was 4.01 µM (not active).

With `COc1cc(/C=N/Nc2ccc(Cl)c(C(=O)O)c2)ccc1OC(=O)c1ccco1` the IC50 (Leucine aminopeptidase) was 48.8 µM (active) and the IC50 [16] was 0.792 µM (active).

In the case of `CCc1c(C)[nH]n(-c2ccc(Oc3ccccc3)c(S(=O)(=O)O)c2)c1=O`, the IC50 [17] is reported as 157 µM (active), the IC50 (Genome polyprotein) is reported as 84.5 µM (active) and the IC50 [18] is reported as 4.83 µM (active). For the same compound, the IC50 [19] was 3.1 µM (active), the IC50 [20] was 58.8 µM (inactive) and the IC50 [21] was 3.6 µM (active).

For `O=C(/C=C/c1ccc(F)cc1)N1CCN(S(=O)(=O)c2ccc([N+](=O)[O-])cc2)CC1`, the IC50 [22] was 0.0129 µM (active).

For `C[C@H](CO)N1C[C@H](C)[C@@H](CN(C)CC2CC2)Oc2ccc(NC(=O)Nc3cccc4ccccc34)cc2CC1=O`, the AC50 [23] was 2.09 µM (active), the AC50 [24] was 2.93 µM (active) and the AC50 [25] was 1.72 µM (active). For the same compound, the AC50 [26] was > 39 µM (inactive) and the AC50 [27] was 3.39 µM (active).

— ChEMBL document CHEMBL1201862, “PubChem BioAssay data set” (2004)
